Reference: patent US6677310B1, “Ring-expanded nucleosides and nucleotides” (Nabi, priority 1999, dated 2004)

Legend:
HT29 = assay: SRB anti-cancer assay, Colon Cancer; assay type: cell-based, human; conditions: 48 h
K-562 = assay: SRB anti-cancer assay, Leukemia; assay type: cell-based, human; conditions: K-562 (Leukemia), 48 h
TK-10 = assay: SRB anti-cancer assay, Renal Cancer; assay type: cell-based, human; conditions: TK-10 (Renal Cancer), 48 h
MOLT-4 = assay: SRB anti-cancer assay, Leukemia; assay type: cell-based, human; conditions: MOLT-4 (Leukemia), 48 h
LOX IMVI = assay: SRB anti-cancer assay, Melanoma; assay type: cell-based, human; conditions: 48 h
SK-MEL-5 = assay: SRB anti-cancer assay, Melanoma; assay type: cell-based, human; conditions: SK-MEL-5 (Melanoma), 48 h
HL-60(TB) = HL-60(TB) (Leukemia), 48 h
Description: Briefly, cell suspensions that were diluted according to the particular cell type and the expected target cell density (5000-40,000 cells per well based on cell growth characteristics) were added by pipette (100 μl) into 96-well microtiter plates. Inoculates were allowed a preincubation period of 24h at 37° C. for stabilization. Dilutions at twice the intended test concentrations of the test compounds were added at time zero in 100 μl aliquots to the microtiter plate wells. The plates were incubated for 48 h in 5% CO2 atmosphere and 100% humidity. The cells were assayed by using the sulforhodamine B assay (Rubinstein, L. V. et al. J. Natl. Cancer Inst. 82:1113-118, 1990; Skehan, P. et al., J. Natl. Cancer Inst. 82:1107-1112, 1990). The plates were read by a plate reader. The following parameters were calculated from the optical densities:
GI50, concentration of drug that causes 50% growth inhibition; where (T−T0)/(C−T0)×100=50

SK-MEL-2 = assay: SRB anti-cancer assay, Melanoma; assay type: cell-based, human; conditions: SK-MEL-2 (Melanoma), 48 h
IGROV1 = assay: SRB anti-cancer assay, Ovarian Cancer; assay type: cell-based, human; conditions: 48 h
[1] = read-out: LC50 (the source's name)

`N=c1nc(N)c2ncn([C@@H]3O[C@H](COC(=O)c4ccccc4)[C@@H](OC(=O)c4ccccc4)[C@H]3OC(=O)c3ccccc3)c2c(N)n1` [4,8-Diamino-6H-6-imino-1(2′,3′,5′-tri-O-benzoyl-β-D-ribofuranosyl)imidazo[4,5-e][1,3]diazepine] gave a GI50 (HT29) of 2.58 µM, a TGI (HT29) of 10.3 µM and a CC50 (HT29; [1]) of 42.3 µM. For the same compound, the GI50 (K-562) was 2.74 µM, the TGI (K-562) was >100 µM and the CC50 (K-562; [1]) was > 100 µM. For the same compound, the GI50 (TK-10) was 21.3 µM, the TGI (TK-10) was 82.2 µM and the CC50 (TK-10; [1]) was > 100 µM. The GI50 (MOLT-4) was 2.31 µM, the TGI (MOLT-4) was 7.08 µM and the CC50 (MOLT-4; [1]) was > 100 µM. The GI50 (LOX IMVI) was 3.01 µM, the TGI (LOX IMVI) was >100 µM and the CC50 (LOX IMVI; [1]) was > 100 µM. The GI50 (SK-MEL-5) was 1.36 µM, the TGI (SK-MEL-5) was 2.64 µM and the CC50 (SK-MEL-5; [1]) was 5.16 µM. For the same compound, the GI50 (HL-60(TB)) was 4.01 µM, the TGI (HL-60(TB)) was 18.3 µM and the CC50 (HL-60(TB); read-out: LC50) was 83.7 µM. It also gave a GI50 (SK-MEL-2) of 2.6 µM, an LC50 (SK-MEL-2) of 26.2 µM and a TGI (SK-MEL-2) of 6.87 µM. The GI50 (IGROV1) was 5.13 µM, the TGI (IGROV1) was 20.3 µM and the CC50 (IGROV1; [1]) was 66.7 µM.
